In ChEMBL document CHEMBL3808380, “Discovery of a novel covalent non-β-lactam inhibitor of the metallo-β-lactamase NDM-1” (Bioorg Med Chem, 2016):
Active and inactive are the calls of the source. The calls are words filed in the database; no cut-off is given here.

Columns and labels:
Klebsiella pneumoniae [1] = assay: Inhibition of Klebsiella pneumoniae 6xHis-tagged metallo-beta-lactamase NDM-1 K224A mutant expressed in Escherichia coli BL21 (DE3)pLysS assessed as hydrolysis of imipenem up to 750 uM after 20 mins
[2] = target: Metallo-beta-lactamase type 2 (Klebsiella pneumoniae) (UniProt C7C422); conditions: 200 uM
Klebsiella pneumoniae [3] = assay: Binding affinity to Klebsiella pneumoniae 6xHis-tagged metallo-beta-lactamase NDM-1 K224A mutant expressed in Escherichia coli BL21 (DE3)pLysS at 1.5 mM after 3 hrs by ESI-MS analysis
[4] = target: T1, Metallo-beta-lactamase type 2 (Klebsiella pneumoniae, UniProt C7C422); assay: Time-dependent inhibition of wild type Klebsiella pneumoniae 6xHis-tagged metallo-beta-lactamase NDM-1 expressed in Escherichia coli BL21 (DE3)pLysS assessed as inhibition constant for initial non-covalant complex
[5] = Inhibition of beta-lactamase VIM-2 (unknown origin)
[6] = target: T1, Metallo-beta-lactamase type 2; assay: Time-dependent inhibition of wild type Klebsiella pneumoniae 6xHis-tagged metallo-beta-lactamase NDM-1 expressed in Escherichia coli BL21 (DE3)pLysS
[7] = target: Metallo-beta-lactamase type 2 (Klebsiella pneumoniae) (UniProt C7C422); conditions: 2 uM

T1 sequence (C7C422 whole entry): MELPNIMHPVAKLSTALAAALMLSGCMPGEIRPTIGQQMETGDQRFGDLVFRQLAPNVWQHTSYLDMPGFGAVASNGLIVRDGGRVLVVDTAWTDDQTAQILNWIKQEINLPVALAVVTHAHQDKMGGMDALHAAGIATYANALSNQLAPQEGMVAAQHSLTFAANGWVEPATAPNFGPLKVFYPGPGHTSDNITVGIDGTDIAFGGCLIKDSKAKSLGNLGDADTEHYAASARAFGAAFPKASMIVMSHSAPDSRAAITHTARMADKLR
Chain of Metallo-beta-lactamase type 2 (Klebsiella pneumoniae) (C7C422 whole entry): as above

O=Cc1coc2ccccc2c1=O
inhibition (Klebsiella pneumoniae [1]): inactive | inhibition [2]: tde | Activity (Klebsiella pneumoniae [3]): inactive | Ki [4]: 76 µM | inhibition [5]: inactive | Ki [6]: 0.58 µM | inhibition [7]: tde
